# Reference: patent US4442093A, “Method for administering 24,25-dihydroxycholecalciferol to persons suffering from hypercalcemia” (Kureha Kagaku Kogyo Kabushiki Kaisha, priority 1981, dated 1984)
# What was measured:
# [1] = test system: inorganic phosphate in serum; test: Serum inorganic phosphate in chronic renal failure patients under hemodialysis (Example 21); assay type: in vivo, human
# Description: Eight patients suffering from chronic renal failure under the treatment of hemodialysis two times a week while using a dialysate containing 9 to 10 mg/dl of calcium component were further treated by oral administration of 24R,25-(OH)2 -D3 in a form of the soft capsule composition obtained in Example 6 at a daily dose of 2 to 10 micrograms for 6 weeks, and the concentration of inorganic phosphate in the serum of each patient before the commencement of the administration and that after completion of the administration were determined by Molybdenum Blue method.
# [2] = test system: content of magnesium in serum; test: Serum magnesium in rats given puromycin aminonucleoside (Example 15); assay type: in vivo, male Wistar rats; settings: AN 1.5 mg/100 g
# Description: Forty male Wistar rats in 9th week after birth were divided into four groups, and the rats of each group were treated as follows.
# To the rats of the first group were administered subcutaneously physiological saline solution once a day for continuous 12 days at a daily dose of 0.1 ml/100 g body weight with the simultaneous oral administration of triglyceride ester of fatty acid used in Example 1 (abbreviated as MCT) containing 0.1% by weight of ethanol once a day for continuous 12 days at a daily dose of 0.2 ml/100 g body weight followed by oral administration of only MCT once a day for another 3 continuous days at the same daily dose rate.
# To the rats of the second group were subcutaneously administered a solution of 1.5 mg of puromycin aminonucleoside (abbreviated hereinafter as AN) in 0.1 ml of physiological saline solution once a day for continuous 12 days at a daily dose rate of 1.5 mg of AN/100 g body weight. The saline solution had been sterilized with a Milipore filter before administration. To the rats were further administered orally MCT in the same manner as in those of the first group. […]
# On 15th day after the commencement of the above-mentioned administration, blood specimen was collected from all the rats, and after preparing each specimen of serum from each blood specimen, the content of magnesium in each serum specimen was determined by atomic absorption method. […]
# [3] = test system: magnesium level in serum; test: Serum magnesium in hypermagnesemic chronic renal failure patients (Example 17); assay type: in vivo, human; settings: for Magnesium level in serum after administration: 10 days; for Magnesium level in serum before administration: baseline
# Description: To the three patients of chronic renal failure showing the hypermagnesemic symptoms of nearly the same extent to each other, 24R,25-(OH)2 -D3 was orally administered in a form of soft capsule composition prepared in Example 6 at a daily dose of 2 to 5 micrograms for continuous 10 days. Magnesium level in their serum was determined before and after the administration following the ordinary method.
# [4] = test system: inorganic phosphate in serum; test: Serum inorganic phosphate in 5/6-nephrectomized rats (Example 18); assay type: in vivo, male Wistar rats; settings: hyperphosphatemia due to 5/6-nephrectomy
# Description: Ten milligrams of 24R,25-(OH)2 -D3 was dissolved in 10 ml of isopropyl alcohol and one ml of the thus obtained solution was admixed into 1,000 ml of distilled water under agitation. The thus obtained solution has the concentration of isopropyl alcohol of 0.1% by weight and the concentration of 24R,25-(OH)2 -D3 of 1 microgram/ml and was called as the composition for oral administration A (abbreviated and referred to as Composition A hereinafter). In a similar manner as the above, another composition for oral administration of the concentration of 24R,25-(OH)2 -D3 of 0.1 microgram/ml and the concentration of isopropyl alcohol of 0.1% by weight was prepared, and referred to hereinafter as Composition B.
# Thirty male Wistar rats of average body weight of 200±30 g were subjected to operation of 5/6--nephrectomy.
# Ten male Wistar rats of the same average body weight were subjected to sham operation. After one month of the operation, the above-mentioned Composition A or Composition B was given to each group (one group consisting of 10 animals) of the rats 6 times a week for 9 weeks to be taken ad lib. The amount of 24R,25-(OH)2 -D3 taken by each rat for a week was calculated from the total amount of water taken by the rats of the group, the total amount of water taken by the rats being actually measured week after week.
# [5] = test system: calcium level in serum; test: Serum calcium in hemodialysis patient hypercalcemic due to active Vitamin D3 (Example 7); assay type: in vivo, human; settings: person six; baseline
# Description: person six who was subjected to hemodialysis on account of renal failure and became hypercalcemia due to the four month administration of active Vitamin D3 at a daily dose of 0.5 to 1.0 microgram was treated by the oral administration of the capsule composition similar to that prepared in Example 6 for three continuous days at a daily dose of 10 micrograms of 24R,25-(OH)2 -D3.
compound,measurement,setting,value
"C=C1CC[C@H](O)C/C1=C/C=C1\CCC[C@]2(C)[C@@H]([C@H](C)CC[C@@H](O)C(C)(C)O)CC[C@@H]12 [24R,25-(OH)2 -D3]",metastatic calcification (roentgenographic examination),"[1]; all patients, after completion of the administration",metastatic calcification was not recognized
same,"Concentration of inorganic phosphorus after administration, average","[1]; average of 8 patients, 2 to 10 µg/day, 6 weeks",4.36 ± 0.76 mg/dL
same,"Concentration of inorganic phosphorus before administration, average","[1]; average of 8 patients, baseline",6.63 ± 0.77 mg/dL
same,osteomalacia (bone biopsy),"[1]; one patient, after completion of the administration",improvement of osteomalacia was confirmed
same,Concentration of inorganic phosphorus after administration,"[1]; patient 1 (person fifteen), 8 µg/day, 6 weeks",4.9 mg/dL
same,Concentration of inorganic phosphorus before administration,"[1]; patient 1 (person fifteen), baseline",7.2 mg/dL
same,Concentration of inorganic phosphorus after administration,"[1]; patient 2 (person one), 6 µg/day, 6 weeks",4.7 mg/dL
same,Concentration of inorganic phosphorus before administration,"[1]; patient 2 (person one), baseline",6.7 mg/dL
same,Concentration of inorganic phosphorus after administration,"[1]; patient 3 (person five), 10 µg/day, 6 weeks",5.2 mg/dL
same,Concentration of inorganic phosphorus before administration,"[1]; patient 3 (person five), baseline",8.0 mg/dL
same,Concentration of inorganic phosphorus after administration,"[1]; patient 4 (person nine), 4 µg/day, 6 weeks",4.2 mg/dL
same,Concentration of inorganic phosphorus before administration,"[1]; patient 4 (person nine), baseline",5.8 mg/dL
same,Concentration of inorganic phosphorus after administration,"[1]; patient 5 (person eleven), 8 µg/day, 6 weeks",5.3 mg/dL
same,Concentration of inorganic phosphorus before administration,"[1]; patient 5 (person eleven), baseline",7.1 mg/dL
same,Concentration of inorganic phosphorus after administration,"[1]; patient 6 (person eighteen), 6 µg/day, 6 weeks",3.5 mg/dL
same,Concentration of inorganic phosphorus before administration,"[1]; patient 6 (person eighteen), baseline",6.3 mg/dL
same,Concentration of inorganic phosphorus after administration,"[1]; patient 7 (person eight), 2 µg/day, 6 weeks",3.5 mg/dL
same,Concentration of inorganic phosphorus before administration,"[1]; patient 7 (person eight), baseline",5.8 mg/dL
same,Concentration of inorganic phosphorus after administration,"[1]; patient 8 (person thirteen), 6 µg/day, 6 weeks",3.6 mg/dL
same,Concentration of inorganic phosphorus before administration,"[1]; patient 8 (person thirteen), baseline",6.1 mg/dL
same,inorganic phosphate level in serum,[1]; patient of chronic renal failure given hemodialysis,significant reduction of the inorganic phosphate level in their serum to the normal level
same,Mg in serum,"[2]; 3rd group, dose 1 per 100 g b.w. oral 12 days",4.5 ± 0.32 mg/dL
same,Mg in serum,"[2]; 4th group, dose 10 per 100 g b.w. oral 12 days",4.3 ± 0.30 mg/dL
same,Magnesium level in serum after administration,"[3]; patient A, 5 µg/day",2.0 mg/dL
same,Magnesium level in serum before administration,[3]; patient A,4.2 mg/dL
same,Magnesium level in serum after administration,"[3]; patient B, 2 µg/day",2.1 mg/dL
same,Magnesium level in serum before administration,[3]; patient B,4.0 mg/dL
same,Magnesium level in serum after administration,"[3]; patient C, 5 µg/day",1.9 mg/dL
same,Magnesium level in serum before administration,[3]; patient C,4.3 mg/dL
same,inorganic phosphate level in serum,[4],significant reduction of the inorganic phosphate level
same,calcium level in serum before the administration,[5],12.8 mg/dL
